Measured values taken from US7291621B2, “Substituted biaryl amides C5a receptor modulators” (Neurogen Corporation, priority 2002, dated 2007).

These molecules were tested against T1, C5a receptor (Homo sapiens, UniProt P21730) (assay: standard assay of C5a receptor mediated calcium mobilization). Settings: Table I; asterisk = tested in C5a receptor mediated calcium mobilization assay; read-out: Ca2+ Mob.
T1 construct: endogenous in cells; host or cells: U937 cells differentiated with 1 mM dibutyryl cAMP
T1 sequence (P21730 1-350): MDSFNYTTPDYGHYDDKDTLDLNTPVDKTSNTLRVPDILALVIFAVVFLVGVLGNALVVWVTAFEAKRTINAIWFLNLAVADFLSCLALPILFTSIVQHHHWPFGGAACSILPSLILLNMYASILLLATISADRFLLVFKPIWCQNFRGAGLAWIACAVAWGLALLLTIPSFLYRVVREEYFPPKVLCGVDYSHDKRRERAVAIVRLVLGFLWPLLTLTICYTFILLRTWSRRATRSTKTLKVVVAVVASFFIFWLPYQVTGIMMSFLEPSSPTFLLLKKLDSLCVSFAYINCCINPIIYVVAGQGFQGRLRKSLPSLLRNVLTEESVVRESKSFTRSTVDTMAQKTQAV
Type: cell-based
Description: U937 cells are grown in differentiation media (1 mM dibutyrl cAMP in RPMI 1640 medium containing 10% fetal bovine serum) for 48 hrs at 37° C. then reseeded onto 96-well plates suitable for use in a FLIPR™ Plate Reader (Molecular Devices Corp., Sunnyvale Calif.). Cells are grown an additional 24 hours (to 70-90% confluence) before the assay. The cells are then washed once with Krebs Ringer solution. FLUO-3 calcium sensitive dye (Molecular Probes, Inc. Eugene, Oreg.) is added to 10 μg/mL and incubated with the cells at room temperature for 1 to 2 hours. The 96 well plates are then washed to remove excess dye. Fluorescence responses, measured by excitation at 480 nm and emission at 530 nm, are monitored upon the addition of human C5a to the cells to a final concentration of 0.01-30.0 nM, using the FLIPR™ device (Molecular Devices).
The calcium mobilization assay described above may be readily adapted for identifying test compounds that have agonist or antagonist activity at the human C5a receptor.
For example, in order to identify antagonist compounds, differentiated U937 cells are washed and incubated with Fluo-3 dye as described above. One hour prior to measuring the fluorescence signal, a subset of the cells is incubated with 1 μM of at least one compound to be tested. The fluorescence response upon the subsequent addition of 0.3 nM (final concentration) human recombinant C5a is monitored using the FLIPR™ plate reader. Antagonist compounds elicit at least a 2-fold decrease in the fluorescence response relative to that measured in the presence of human C5a alone. Preferred antagonist compounds elicit at least a 5-fold, preferably at least a 10-fold, and more preferably at least a 20-fold decrease in the fluorescence response relative to that measured in the presence of human C5a alone.

Ki, < 1000 nM:
O=C(c1ccccc1-c1ccccc1)N(Cc1ccc(F)cc1)C1Cc2ccccc2C1 [compound 76, N-(indan-2-yl)-N-(4-fluorobenzyl)-1,1′-biphenyl-2-carboxamide]
O=C(c1ccccc1-c1ccccc1)N(Cc1cccc(F)c1)C1Cc2ccccc2C1 [compound 77, N-(indan-2-yl)-N-(3-fluorobenzyl)-1,1′-biphenyl-′-carboxamide]
O=C(c1ccccc1-c1ccccc1)N(Cc1ccccc1F)C1Cc2ccccc2C1 [compound 78, N-(indan-2-yl)-N-(2-fluorobenzyl)-1,1′-biphenyl-2-carboxamide]
O=C(c1ccccc1-c1ccccc1)N(Cc1ccc2c(c1)OCO2)C1Cc2ccccc2C1 [compound 79, N-(1,3-benzodioxol-5-ylmethyl)-N-(indan-2-yl)-1,1′-biphenyl-2-carboxamide]
O=C(c1ccccc1-c1ccccc1)N(Cc1ccc(F)c(F)c1)C1Cc2ccccc2C1 [compound 80, N-(3,4-difluorobenzyl)-N-(indan-2-yl)-1,1′-biphenyl-2-carboxamide]
COc1ccccc1CN(C(=O)c1ccccc1-c1ccsc1)C1Cc2ccccc2C1 [compound 81, N-(indan-2-yl)-N-(2-methoxybenzyl)-2-thien-3-ylbenzamide]
COc1ccccc1CN(C(=O)c1ccccc1-c1ccccc1F)C1Cc2ccccc2C1 [compound 82, N-(indan-2-yl)-2′-fluoro-N-(2-methoxybenzyl)-1,1′-biphenyl-2-carboxamide]
COc1ccc(CN(C(=O)c2ccccc2-c2ccsc2)C2Cc3ccccc3C2)cc1 [compound 83, N-(indan-2-yl)-N-(4-methoxybenzyl)-2-thien-3-ylbenzamide]
COc1cc(CN(C(=O)c2ccccc2-c2ccsc2)C2Cc3ccccc3C2)cc(OC)c1 [compound 84, N-(indan-2-yl)-N-(3,5-dimethoxybenzyl)-2-thien-3-ylbenzamide]
O=C(c1ccccc1-c1ccsc1)N(Cc1cccc(-c2ccsc2)c1)C1Cc2ccccc2C1 [compound 85, N-(indan-2-yl)-2-thien-3-yl-N-(3-thien-3-ylbenzyl)benzamide]
O=C(c1ccccc1-c1ccsc1)N(Cc1ccc2ccccc2c1)C1Cc2ccccc2C1 [compound 86, N-(indan-2-yl)-N-(2-naphthylmethyl)-2-thien-3-ylbenzamide]
O=C(c1ccccc1-c1ccccc1F)N(Cc1ccccc1)Cc1ccccc1 [compound 87, N,N-dibenzyl-2′-fluoro-1,1′-biphenyl-2-carboxamide]
Cc1ccc(CN(C(=O)c2ccccc2-c2ccc(C)cc2)C2Cc3ccccc3C2)cc1 [compound 88, N-(indan-2-yl)-4′-methyl-N-(4-methylbenzyl)-1,1′-biphenyl-2-carboxamide]
COc1cccc(-c2ccccc2C(=O)N(Cc2ccc(C)cc2)C2Cc3ccccc3C2)c1 [compound 89, N-(indan-2-yl)-3′-methoxy-N-(4-methylbenzyl)-1,1′-biphenyl-2-carboxamide]
Cc1ccc(CN(C(=O)c2ccccc2-c2ccccc2F)C2Cc3ccccc3C2)cc1 [compound 90, N-(indan-2-yl)-2′-fluoro-N-(4-methylbenzyl)-1,1′-biphenyl-2-carboxamide]
Cc1ccc(-c2ccccc2C(=O)N(Cc2ccc(F)cc2)C2Cc3ccccc3C2)cc1 [compound 91, N-(indan-2-yl)-N-(4-fluorobenzyl)-4′-methyl-1,1′-biphenyl-2-carboxamide]
COc1cccc(-c2ccccc2C(=O)N(Cc2ccc(F)cc2)C2Cc3ccccc3C2)c1 [compound 92, N-(indan-2-yl)-N-(4-fluorobenzyl)-3′-methoxy-1,1′-biphenyl-2-carboxamide]
O=C(c1ccccc1-c1ccccc1F)N(Cc1ccc(F)cc1)C1Cc2ccccc2C1 [compound 93, N-(indan-2-yl)-2′-fluoro-N-(4-fluorobenzyl)-1,1′-biphenyl-2-carboxamide]
Cc1ccc(-c2ccccc2C(=O)N(Cc2ccccc2F)C2Cc3ccccc3C2)cc1 [compound 94, N-(indan-2-yl)-N-(2-fluorobenzyl)-4′-methyl-1,1′-biphenyl-2-carboxamide]
Cc1ccc(-c2ccccc2C(=O)N(Cc2cccc(F)c2)C2Cc3ccccc3C2)cc1 [compound 95, N-(indan-2-yl)-N-(3-fluorobenzyl)-4′-methyl-1,1′-biphenyl-2-carboxamide]
O=C(c1ccccc1-c1ccccc1F)N(Cc1cccc(F)c1)C1Cc2ccccc2C1 [compound 96, N-(indan-2-yl)-2′-fluoro-N-(3-fluorobenzyl)-1,1′-biphenyl-′-carboxamide]
Cc1ccc(-c2ccccc2C(=O)N(Cc2cccc(C)c2)C2Cc3ccccc3C2)cc1 [compound 97, N-(indan-2-yl)-4′-methyl-N-(3-methylbenzyl)-1,1′-biphenyl-2-carboxamide]
COc1cccc(-c2ccccc2C(=O)N(Cc2cccc(C)c2)C2Cc3ccccc3C2)c1 [compound 98, N-(indan-2-yl)-3′-methoxy-N-(3-methylbenzyl)-1,1′-biphenyl-2-carboxamide]
Cc1cccc(CN(C(=O)c2ccccc2-c2ccccc2F)C2Cc3ccccc3C2)c1 [compound 99, N-(indan-2-yl)-2′-fluoro-N-(3-methylbenzyl)-1,1′-biphenyl-2-carboxamide]
Cc1ccc(-c2ccccc2C(=O)N(Cc2ccccc2C)C2Cc3ccccc3C2)cc1 [compound 100, N-(indan-2-yl)-4′-methyl-N-(2-methylbenzyl)-1,1′-biphenyl-2-carboxamide]
COc1cccc(CN(C(=O)c2c(OC)cccc2-c2ccccc2)C2Cc3ccccc3C2)c1 [compound 101, N-(indan-2-yl)-3-methoxy-N-(3-methoxybenzyl)-1,1′-biphenyl-2-carboxamide]
COc1cccc(CN(C(=O)c2cc(OC)ccc2-c2ccc(C)s2)C2Cc3ccccc3C2)c1 [compound 102, N-(indan-2-yl)-5-methoxy-N-(3-methoxybenzyl)-2-(5-methylthien-2-yl)benzamide]
COc1cccc(CN(C(=O)c2cc(OC)ccc2-c2ccccc2)C2Cc3ccccc3C2)c1 [compound 103, N-(indan-2-yl)-4-methoxy-N-(3-methoxybenzyl)-1,1′-biphenyl-2-carboxamide]
COc1cccc(CN(C(=O)c2cc(OC)ccc2-c2ccsc2)C2Cc3ccccc3C2)c1 [compound 104, N-(indan-2-yl)-5-methoxy-N-(3-methoxybenzyl)-2-thien-3-ylbenzamide]
COc1ccc(-c2ccccc2)c(C(=O)N(Cc2ccccc2C)C2Cc3ccccc3C2)c1 [compound 105, N-(indan-2-yl)-4-methoxy-N-(2-methylbenzyl)-1,1′-biphenyl-2-carboxamide]
COc1ccc(-c2ccccc2)c(C(=O)N(Cc2cccc(C)c2)C2Cc3ccccc3C2)c1 [compound 106, N-(indan-2-yl)-4-methoxy-N-(3-methylbenzyl)-1,1′-biphenyl-2-carboxamide]
COc1ccc(-c2ccccc2)c(C(=O)N(Cc2ccc(C)cc2)C2Cc3ccccc3C2)c1 [compound 107, N-(indan-2-yl)-4-methoxy-N-(4-methylbenzyl)-1,1′-biphenyl-2-carboxamide]
COc1ccc(-c2ccccc2)c(C(=O)N(Cc2ccccc2F)C2Cc3ccccc3C2)c1 [compound 108, N-(indan-2-yl)-N-(2-fluorobenzyl)-4-methoxy-1,1′-biphenyl-2-carboxamide]
COc1ccc(-c2ccccc2)c(C(=O)N(Cc2cccc(F)c2)C2Cc3ccccc3C2)c1 [compound 109, N-(indan-2-yl)-N-(3-fluorobenzyl)-4-methoxy-1,1′-biphenyl-2-carboxamide]
COc1ccc(-c2ccccc2)c(C(=O)N(Cc2ccc(F)cc2)C2Cc3ccccc3C2)c1 [compound 110, N-(indan-2-yl)-N-(4-fluorobenzyl)-4-methoxy-1,1′-biphenyl-2-carboxamide]
COc1ccc(-c2ccccc2)c(C(=O)N(Cc2ccc(F)c(F)c2)C2Cc3ccccc3C2)c1 [compound 111, N-(3,4-difluorobenzyl)-N-(indan-2-yl)-4-methoxy-1,1′-biphenyl-2-carboxamide]
O=C(c1c(F)cccc1-c1ccccc1)N(Cc1ccccc1)C1Cc2ccccc2C1 [compound 112, N-benzyl-N-(indan-2-yl)-3-fluoro-1,1′-biphenyl-2-carboxamide]
